A short description of series [1]: Solubility of candidate compound in NSB. In kind it is physicochemical. The settings on record: NSB solution.
In series [2] the test system is polymerase-nucleic acid complexes (ternary complexes). The series can be described thus: Stripping nucleotides from ternary complexes: crosstalk metrics after NSB wash in 2x2 examination sequencing. In kind it is biochemical. Conditions: for Capability of stripping nucleotides from ternary complexes while retaining polymerase on primed-template nucleic acid: candidate in NSB; for A_T crosstalk (Cy5-dATP carryover from first exam into second exam) compared to NSB having isopropanol / C_G crosstalk (carryover of C signal from first exam into G channel of second exam) compared to NSB having isopropanol: alternating cycles vs 20% v/v isopropanol (SOP); for Overall performance of NSB having candidate vs NSB having isopropanol: vs 20% v/v isopropanol (SOP) NSB; for Concentration range in NSB found effective: other concentrations tested in addition to Table 1. How it is done: Template nucleic acid strands synthesized in 12 PCR reactions were prepared, and then independently bound to beads. […] Beads harboring immobilized template strands were then attached to the inner surface of a flow cell. Sequencing was performed for 22 cycles, where each cycle included subroutines for (i) Extension: adding a reversibly terminated nucleotide to primers that were hybridized to the immobilized templates, (ii) Examination: forming and detecting stabilized ternary complexes on the reversibly terminated, immobilized primer-template hybrids, and (iii) Activation: cleaving the reversible terminator from the extended primers.
The Examination subroutine was performed in a 2×2 format as diagrammed in FIG. 1. Specifically, a mixture of Cy5 labelled dATP, Cy7 labelled dCTP, unlabeled dTTP and unlabeled dGTP was delivered to the flow cell that contained polymerase-nucleic acid complexes on the beads, the system paused fluid flow to allow nucleotides to bind at cognate positions of the templates, thereby forming ternary complexes. Free nucleotide was removed from the flow cell by flowing IMG reagent. […] The flow cell was then imaged via fluorescence microscopy to detect ternary complexes that contained a labeled nucleotide that was a cognate for the next correct nucleotide in each of the template nucleic acids. The flow cell was then washed with NSB solutions having various compositions as set forth below. After the NSB wash, a mixture of Cy5 labelled dTTP, Cy7 labelled dGTP, unlabeled dCTP and unlabeled dATP was delivered to the flow cell, and the system paused fluid flow to allow nucleotides to bind, thereby forming ternary complexes. Free nucleotide was removed by flowing IMG reagent and then the flow cell was again imaged.
The concentrations are provided as a percentage in weight of compound per total volume of NSB (w/v) or volume of compound per total volume of NSB (v/v). The concentration can also be expressed as a molar concentration and this can be helpful, for example, as a way to compare the amounts of each compound tested. […] The molar concentrations of 1,5 pentanediol, propylene glycol, hexylene glycol, sulfolane, DMSO, ethyl methyl sulfone and 2-mthoxy ethanol in NSB were similar to the molar concentration of isopropanol in the SOP NSB.
The effectiveness of each candidate compound was determined from the following crosstalk metrics. The A_T crosstalk metric indicates how much Cy5-dATP is carried over from the first exam such that it is detected in the second exam. Similarly, the C_G crosstalk metric indicates how much Cy7-dCTP is carried over from the first exam such that it is detected in the second exam. A lower value for the crosstalk metric indicates less carryover and is correlated with improved sequencing results. On the other hand, a higher value for the crosstalk metric indicates more carryover and lower quality sequencing results.
Results were evaluated as a comparison of crosstalk metrics measured for NSB having 20% v/v/isopropanol (SOP) compared to the crosstalk metric measured for NSB having each of the respective candidate compounds. In all cases, the comparisons were based on data obtained for sequencing runs performed in a single lane of a flow cell. The format of the run was as follows: Cycle_1(SOP)=>Cycle_2(candidate)=>Cycle_3(SOP)=>Cycle_4(candidate) and so on. The crosstalk metric was determined separately for the SOP and candidate cycles, respectively. This format was used to minimize the confounding influence of run-to-run variations when comparing between SOP and each candidate.

A short description of series [3]: Stability of NSB fluid foam in a flow cell. In kind it is physicochemical. Conditions: 28% 1,6 hexanediol or 20% isopropanol, 55° C., images before and after 1 minute pause in flow. On the procedure: NSB fluid foam having 20% isopropanol (SOP) or 28% 1,6 hexanediol was flowed through a flow cell (40 μl/s flow rate, 300 μl volume, 35 psi positive pressure, 55° C.). The flow was paused and a first image of the foam was acquired immediately. The foam was allowed to sit for 60 seconds and then a second image was taken.

The mark [4] stands for this setting: NSB with candidate at Table 1 concentration, lower = less carryover.

With `OCCCCCCCCO` [1,8 octanediol], the “Solubility in NSB” value in series [1] is listed as “not immediately soluble”.

Take `NCCCO` [3-Amino-1-propanol]: the “Capability of stripping nucleotides from ternary complexes while retaining polymerase on primed-template nucleic acid” value (shortened to “Capability of stripping nucleotides”) in series [2] was “can also be useful”.

Consider `OCCCCCCCO` [1,7 heptanediol], for which, in series [2] (setting [4]), the “A_T crosstalk (Cy5-dATP carryover from first exam into second exam) compared to NSB having isopropanol” value is recorded as “better” and the “C_G crosstalk (carryover of C signal from first exam into G channel of second exam) compared to NSB having isopropanol” value is on record as “better”. Further, in series [2], the “Overall performance of NSB having candidate vs NSB having isopropanol” value (shortened to “Overall performance … vs NSB having isopropanol”) is on record as “outperformed NSB having isopropanol”.

With `OCCCCCCO` [1,6 hexanediol], the Flammability entry in the series “Flammability” is on record as “non-flammable”. In addition, in series [2] (setting [4]), the “A_T crosstalk (Cy5-dATP carryover from first exam into second exam) compared to NSB having isopropanol” value was “modestly lower” and the “C_G crosstalk (carryover of C signal from first exam into G channel of second exam) compared to NSB having isopropanol” value is reported as “significantly lower”. Also, in series [2], the “Concentration range in NSB found effective” value (“Concentration range” below) is recorded as 10-31% and the “Overall performance … vs NSB having isopropanol” value is recorded as “outperformed NSB having isopropanol”. Further, the Foam stability entry in series [3] is on record as “greater foam stability”.

With `CC(C)O` [Isopropanol, reference compound], the “Concentration range” value in series [2] is given as 16-20%. The Foam stability result in series [3] is “foam can be maintained to some degree”.

Regarding `OCCCCCO` [1,5 pentanediol], in series [2] (setting [4]), the “A_T crosstalk (Cy5-dATP carryover from first exam into second exam) compared to NSB having isopropanol” value is reported as “stronger”, the “C_G crosstalk (carryover of C signal from first exam into G channel of second exam) compared to NSB having isopropanol” value was “stronger”, the A_T crosstalk metric result was “about 0.16” and the C_G crosstalk metric result was “about 0.16”.

Regarding hexylene glycol, in series [2], the “Capability of stripping nucleotides” value is given as “capable of stripping nucleotides from ternary complexes while retaining polymerase association with primed-template nucleic acid” and the “Overall performance … vs NSB having isopropanol” value was “did not perform as well as isopropanol”.

On to `CCS(C)(=O)=O` [ethyl methyl sulfone], for which, in series [2] (setting [4]), the “A_T crosstalk (Cy5-dATP carryover from first exam into second exam) compared to NSB having isopropanol” value is “stronger” and the A_T crosstalk metric entry is listed as “below 0.2”. For the same compound, the “Concentration range” value in series [2] is recorded as 1.4-2.8%.

For the compound `CC(O)CCO` (stereo not drawn) [1,3 butanediol], in series [2], the “Capability of stripping nucleotides” value is reported as “capable of stripping nucleotides from ternary complexes while retaining polymerase association with primed-template nucleic acid” and the “Overall performance … vs NSB having isopropanol” value is listed as “did not perform as well as isopropanol”.

Turning to `O=S1(=O)CCCC1` [sulfolane], in series [2] (setting [4]), the “A_T crosstalk (Cy5-dATP carryover from first exam into second exam) compared to NSB having isopropanol” value is “comparable” and the “C_G crosstalk (carryover of C signal from first exam into G channel of second exam) compared to NSB having isopropanol” value was “better”. Moreover, the “Overall performance … vs NSB having isopropanol” value in series [2] is listed as “outperformed NSB having isopropanol”.

Consider `COCCO` [2-methoxy ethanol], for which, in series [2], the “Capability of stripping nucleotides” value is given as “can also be useful”.

Regarding `C[S+](C)[O-]` [DMSO, dimethyl sulfoxide], in series [2] (setting [4]), the “A_T crosstalk (Cy5-dATP carryover from first exam into second exam) compared to NSB having isopropanol” value was “stronger” and the A_T crosstalk metric result is “below 0.35”. Also, in series [2], the “Concentration range” value is given as 21-26%.

Take `CC(O)CO` (stereo not drawn) [Propylene glycol]: in series [2], the “Capability of stripping nucleotides” value is listed as “capable of stripping nucleotides from ternary complexes while retaining polymerase association with primed-template nucleic acid” and the “Overall performance … vs NSB having isopropanol” value was “did not perform as well as isopropanol”.

Values taken from patent US20230183798A1, “COMPOSITIONS AND METHODS FOR MODIFYING POLYMERASE-NUCLEIC ACID COMPLEXES” (Pacific Biosciences of California, Inc., priority 2020, published 2023).
